Laboratory results from publication PMC4958397, “Synthesis, antibacterial and antiproliferative potential of some new 1-pyridinecarbonyl-4-substituted thiosemicarbazide derivatives” (Medicinal Chemistry Research, 2016).
Converted amounts (≈) assume the structure as drawn. Like-named read-outs stand apart in the source and are kept apart here.

Tests used:
Assay type in all cases: cell-based
Cytotoxicity MTT assay = details: human, BJ cells (normal human skin fibroblasts), read-out: CC50 (concentration required for a 50 % reduction of cell viability)
Description: (§1) Normal human skin fibroblasts (BJ), human hepatocellular carcinoma (HepG2) and human breast adenocarcinoma (MCF-7) were obtained from American Type Culture Collection (ATCC, England, UK). The cells were cultured in Eagle’s minimum essential medium (EMEM, ATCC) supplemented with 10 % fetal bovine serum (FBS, PAA Laboratories), 100 U/mL penicillin and 100 μg/mL streptomycin (Sigma-Aldrich). In the case of the MCF-7 cell line, the culture medium was additionally supplemented with 0.01 μg/mL of human recombinant insulin (Sigma-Aldrich). The cells were grown in 75-cm^2 flasks and maintained at 37 °C in a humidified atmosphere of 5 % CO2 and 95 % air.
In order to determine the cytotoxicity, BJ cells were seeded in flat-bottom 96-well plates in 100 μL of a complete growth medium at a concentration of 1.7 × 10^4 cells/well and incubated for 24 h at 37 °C in a humidified atmosphere of 5 % CO2. Immediately before drug treatment, the synthesized compounds (1, 2, 4, 5, 6, 7, 10) were dissolved in dimethyl sulfoxide (DMSO, Sigma-Aldrich) and then diluted in cell culture medium supplemented with 2 % FBS. […] After incubation, the growth medium was replaced with 100 μL of the appropriate serial dilutions of the investigated compounds. Untreated cells were used as negative controls, and different concentrations of DMSO were used as the solvent control. The cell cultures were incubated at 37 °C for 24 h. The cytotoxicity was estimated using the 3-(4,5-dimethylthiazol-2-yl)-2,5-diphenyltetrazolium bromide (MTT) assay as described by Mosmann with some modifications (Mosmann, [1983]). Briefly, the cells were incubated for 3 h with 25 μL of MTT solution ([…] in PBS buffer) per well. The MTT assay is a rapid colorimetric method based on the conversion of mitochondrial succinate dehydrogenase from yellow, soluble tetrazolium salt to blue formazan crystals to determine the number of viable cells. In order to dissolve formazan crystals in live cells, 100 μL of SDS-HCl solution (10 % SDS in 0.01 N HCl) was added per well. After overnight incubation, absorbance was measured at 570 nm using microplate reader (BioTek ELx50). The MTT assay was repeated in three independent experiments performed in octuplicates. The half-maximal cytotoxic concentration (CC50) was defined as the compound concentration (μg/mL) required to reduce cell viability to 50 %. Therapeutic index (TI) is a widely accepted parameter to represent the specificity of antibacterial agents for human (Begg et al., [1999]). In this study, the in vitro TI values were calculated as the ratio of CC50 (cytotoxic activity) and MIC (antibacterial activity); thus, greater values of in vitro therapeutic index indicate safer specificity for eukaryotic cells.
(§2) The data were analyzed using one-way ANOVA test followed by Dunnett’s test. Differences were considered as significant with p < 0.01 (GraphPad Prism 5, Version 5.04 Software). The values of CC50 and IC50 were calculated via 4-parameter nonlinear regression analyses using GraphPad Prism 5, version 5.04.

Lactobacillus spp. = test: Broth microdilution MIC
Source text: (§3) Panel reference strains of bacteria from the American Type Culture Collection or Polish Collection of Microorganisms, including aerobic Gram-positive bacteria: Staphylococcus aureus ATCC 25923 and Staphylococcus epidermidis ATCC 12228, and aerobic Gram-negative bacteria: Escherichia coli ATCC 25922 and Pseudomonas aeruginosa ATCC 9027, as well as microaerobic Gram-positive bacteria: Lactobacillus spp., Lactobacillus acidophilus PCM 2105, Streptococcus mutans PCM 2502 and Streptococcus sanguinis PCM 2335, were used. Microbial suspensions with an optical density of 0.5 McFarland standard at 1.5 × 10^8 CFU/mL (CFU: colony forming unit) were prepared in sterile 0.9 % NaCl. Mueller–Hinton (M–H) broth and M–H agar (Oxoid Ltd., England) for aerobic strains, and MRS Broth Lactobacillus, MRS Agar Lactobacillus (BioMaxima S.A., Poland), BHI Broth and BHI agar (BioMaxima S.A., Poland) for microaerobic strains were used in the microbial tests.
(§4) A broth microdilution method was used to evaluate the minimum inhibition concentration (MIC) according to the CLSI document (CLSI performance standards for antimicrobial susceptibility testing, 2008, Eighteenth International Supplement, CLSI document M7-MIC, Clinical Laboratory Standards Institute, Wayne) with some modifications. […] A serial doubling dilution of the compounds was prepared in 96-well plates (200 μL per well). A suitable medium (M-H Broth, MRS Broth Lactobacillus, BHI Broth) was used as a diluent. The final concentrations of derivatives were 1000–0.015 μg/mL. Finally, 2 μL of inoculum of the tested bacterial strain (1.5 × 10^8 CFU/mL) was added to each well. The tests were performed either at 36 °C for 18 h (aerobic strains) or at 40 h (microaerobic strains). After incubation, the panel was digitally analyzed at 600 nm using the microplate reader Bio Tech Synergy (USA) with a dedicated software system. The growth intensity in each well was compared with the negative and positive controls.

[1] = test system: BJ (normal human skin fibroblasts); test: Cell proliferation MTT assay; details: 96 h; for IC50: Homo sapiens, Skin fibroblast, MTT, mean ± SD, read-out: IC50, antiproliferative activity, BJ
Description: as §1
(§5) In order to evaluate cell proliferation, the cells were seeded in flat-bottom 96-well plates in 100 μL of a complete growth medium at a concentration of 2 × 10^3 cells/well (BJ), 1.5 × 10^4 cells/well (HepG2) and 2.5 × 10^4 cells/well (MCF-7) and incubated for 24 h at 37 °C in a humidified atmosphere of 5 % CO2. Before drug exposure, the synthesized compounds (1–10) were dissolved in DMSO and then diluted in a complete culture medium supplemented with 10 % FBS. Subsequently, the growth medium was gently removed and the cells were exposed to 100 μL of serial dilutions of the investigated compounds at concentrations ranging from 0.05 to 200 μg/mL. Untreated cells were used as negative controls, and different concentrations of DMSO were used as the solvent control. After 96-h incubation at 37 °C in a humidified atmosphere of 5 % CO2, cell proliferation was assessed using the MTT test as described previously (Cytotoxicity assay). The MTT assay was repeated in three independent experiments in quadruplicates. The half-maximal inhibitory concentration (IC50) was defined as the compound concentration (μg/mL) required to inhibit cell proliferation to 50 %.
as §2, with “The results of the in vitro cell culture experiments were presented as mean values ± standard deviation (SD) or as mean values ± standard error of the mean (SEM). The data” for “The data”

[2] = test system: HepG2 (human hepatocellular carcinoma); test: Cell proliferation MTT assay; details: 96 h; for IC50: Homo sapiens, HepG2, MTT, read-out: IC50, antiproliferative activity, HepG2
Description: as §1, §5
as §2, with “The results of the in vitro cell culture experiments were presented as mean values ± standard deviation (SD) or as mean values ± standard error of the mean (SEM). The data” for “The data”

[3] = test system: pathogenic microaerobic bacteria (causing dental caries); test: Broth microdilution MIC, summary in text; details: range over compounds and strains; read-out: MIC against pathogenic microaerobic bacteria
Source text: as §3, §4

[4] = 10 μg/mL, proliferation reduced to

Compound | IC50 ([2]; mean ± SD) [µg/mL] | MIC [3] [µg/mL] | CC50 at 24 h (Cytotoxicity MTT assay) [µg/mL] | IC50 [1] [µg/mL] | further results
[H]/N=C(\N/C(=N/[H])NCCCCCCNC(=N)NC(=N)Nc1ccc(Cl)cc1)Nc1ccc(Cl)cc1 [CLX, chlorhexidine digluconate, reference compound] |  |  | 8.46 |  | 
O=C(NNC(=S)Nc1ccc(Cl)cc1Cl)c1cccnc1 [Compound 7, 4-(2,4-Dichlorophenyl)-1-(pyridin-3-yl)carbonylthiosemicarbazide] |  |  | 88.3 (≈ 259 µM) |  | 
CCOc1ccc2nc3cc(N)ccc3c(N)c2c1 [Ethacridine lactate, ethacridine lactate, reference compound] |  |  | 6.88 |  | 
CSc1ccc(NC(=S)NNC(=O)c2cccnc2)cc1 [Compound 6, 4-(4-Methylthiophenyl)-1-(pyridin-3-yl)carbonylthiosemicarbazide] |  |  | 917 (≈ 2880 µM) |  | Minimum inhibitory concentration (MIC), Lactobacillus spp. (Lactobacillus spp.): did not limit the growth

Now from value to molecule, other results behind:

IC50 ([2]; mean ± SD) [µg/mL] | MIC [3] [µg/mL] | Compound | CC50 at 24 h (Cytotoxicity MTT assay) [µg/mL] | IC50 [1] [µg/mL] | further results
2.09 | 7.81 to 500 | O=C(NNC(=S)Nc1ccc(Cl)cc1Cl)c1ccccn1 [Compound 4, 4-(2,4-Dichlorophenyl)-1-(pyridin-2-yl)carbonylthiosemicarbazide] | 19.5 (≈ 57.1 µM) | 1.86 ± 0.44 (≈ 5.45 µM) | MIC (Lactobacillus spp.; Lactobacillus, read-out: Minimum inhibitory concentration (MIC), Lactobacillus spp.): 31.2 µg/mL; IC50 ([2]; same value in µM): 6.12 µM
2.71 ± 0.23 | 7.81 to 500 | O=C(NNC(=S)Nc1ccccc1Cl)c1ccccn1 [Compound 2, 4-(2-Chlorophenyl)-1-(pyridin-2-yl)carbonylthiosemicarbazide] |  | 3.06 ± 0.46 (≈ 9.97 µM) | cell proliferation compared to the control, BJ [1, 4]: 32%; cell proliferation compared to the control, HepG2 [2, 4]: 18.9%
